Where two headings read alike, the source gives them in different places.
Columns and labels:
[1] = molecular target: T1, recombinant EGFR T790M/L858R kinase (Homo sapiens, UniProt P00533, L858R/T790M); assay: HTRF-based EGFR biochemical assay
T1 construct: Constructs spanning residues 696-1022 of the human EGFR; GST (cleaved yes); made in house; host or cells: Sf9 insect cells
Method: EGFR kinase proteins were purified by glutathione-affinity chromatography followed by size-exclusion chromatography after cleavage with TEV or thrombin to remove the GST fusion partner following established procedures. (Yun 2008; Yun 2007).
EGFR biochemical assays were carried out using a homogeneous time-resolved fluorescence (HTRF) assay as described previously. The reaction mixtures contained 1 μM biotin-Lck-peptide substrate, wild type or mutant EGFR enzyme in reaction buffer (50 mM HEPES pH 7.1, 10 mM MgCl2, 0.01% BSA. 1 mM TCEP and 0.1 mM Na3VO4) at a final volume of 10 μL. […] All reactions were carried out at room temperature in white ProxiPlate™ 384-well Plus plates (PerkinElmer) and were quenched with 5 μL of 0.2 M EDTA at 60 min. Five μL per well of the detection reagent containing 2.5 ng PT66K (Cis-bio) and 0.05 μg SAXL (Prozyme) were added, and the plates were then incubated at room temperature for 1 hour and read with an EnVision plate reader.

[2] = molecular target: T2, EGFR T790M/L858R Ba/F3 cell line (Homo sapiens, UniProt P00533, T790M/L858R, cells depend on it); assay: Ba/F3 cell proliferation (MTS assay), EGFR T790M/L858R; type: cell-based, murine
T2 construct: "The constructs were shuttled into the retroviral vector JP1540 using the BD Creator™ System (BD Biosciences)
T2 sequence (P00533 whole entry T790M/L858R): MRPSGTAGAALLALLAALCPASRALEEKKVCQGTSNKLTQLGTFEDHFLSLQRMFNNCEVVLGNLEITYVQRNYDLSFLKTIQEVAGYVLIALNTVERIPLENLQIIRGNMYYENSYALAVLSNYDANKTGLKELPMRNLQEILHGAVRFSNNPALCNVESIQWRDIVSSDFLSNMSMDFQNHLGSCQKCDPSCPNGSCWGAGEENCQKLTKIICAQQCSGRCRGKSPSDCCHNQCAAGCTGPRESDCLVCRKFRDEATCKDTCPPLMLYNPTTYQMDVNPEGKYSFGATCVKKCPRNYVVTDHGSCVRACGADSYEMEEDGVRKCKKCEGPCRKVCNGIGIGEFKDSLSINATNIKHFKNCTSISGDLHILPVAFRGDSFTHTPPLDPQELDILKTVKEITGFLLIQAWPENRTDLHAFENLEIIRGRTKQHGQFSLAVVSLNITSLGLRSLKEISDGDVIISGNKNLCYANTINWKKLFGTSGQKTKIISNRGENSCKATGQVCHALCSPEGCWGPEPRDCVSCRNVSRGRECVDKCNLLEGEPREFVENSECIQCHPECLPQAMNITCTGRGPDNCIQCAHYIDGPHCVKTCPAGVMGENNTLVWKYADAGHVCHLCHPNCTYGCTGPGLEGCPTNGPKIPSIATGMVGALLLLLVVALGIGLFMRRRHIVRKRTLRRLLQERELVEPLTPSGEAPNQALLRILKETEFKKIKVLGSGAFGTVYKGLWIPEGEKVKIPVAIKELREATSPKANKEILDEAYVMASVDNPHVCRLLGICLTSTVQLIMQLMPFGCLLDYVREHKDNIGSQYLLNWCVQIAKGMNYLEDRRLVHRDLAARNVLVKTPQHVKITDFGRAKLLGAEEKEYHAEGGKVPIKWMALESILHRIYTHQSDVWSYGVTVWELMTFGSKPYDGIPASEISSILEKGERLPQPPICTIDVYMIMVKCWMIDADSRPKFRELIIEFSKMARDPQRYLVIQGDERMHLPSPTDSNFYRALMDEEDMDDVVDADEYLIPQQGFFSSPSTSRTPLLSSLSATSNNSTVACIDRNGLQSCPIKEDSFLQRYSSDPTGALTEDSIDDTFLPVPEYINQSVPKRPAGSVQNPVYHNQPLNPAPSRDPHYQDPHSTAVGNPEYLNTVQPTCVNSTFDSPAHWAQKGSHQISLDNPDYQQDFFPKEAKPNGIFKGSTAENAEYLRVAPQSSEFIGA
Method: All cell lines were maintained in RPM 1640 (Cellgro; Mediatech Inc., Herndon, Calif.) supplemented with 10% FBS 100 units/mL penicillin, 100 units/mL streptomycin, and 2 mM glutamine. […] The EGFR 1941R mutation was introduced via site directed mutagenesis using the Quick Change Site-Directed Mutagenesis kit (Stratagene: La Jolla, Calif.) according to the manufacturer's instructions. All constructs were confirmed by DNA sequencing. The constructs were shuttled into the retroviral vector JP1540 using the BD Creator™ System (BD Biosciences). Ba/F3 cells were infected with retrovirus and according to standard protocols, as described previously (Zhou 2009). Stable clones were obtained by selection in puromycin (2 μg/ml).
Growth and inhibition of growth was assessed by MTS assay and was performed according to previously established methods (Zhou 2009). The MTS assay is a colorimetric method for determining the number of viable cells that is based on the bioreduction of MTS by cells to a formazan product that is soluble in cell culture medium and can be detected spectrophotometrically. […] All experimental points were set up in six wells and all experiments were repeated at least three times. […] The curves were fitted using anon-linear regression model with a sigmoidal dose response.

[3] = system: EGFR L858R/T790M/C797S Ba/F3 cell line; assay: Ba/F3 cell proliferation (MTS assay), EGFR L858R/T790M/C797S; type: cell-based, murine
Method: The EGFR mutant L858R, Del E746_A750, L858R/T790M, DelE746_A750/T790M, L858R/T790M/C797S and Del/T790M/C797S Ba/F3 cells were previously described (Zhou et al., Nature 462, (2009), 1070-1074). All cell lines were maintained in RPM 1640 (Cellgro; Mediatech Inc., Herndon, Calif.) supplemented with 10% FBS 100 units/mL penicillin, 100 units/mL streptomycin, and 2 mM glutamine. L858R cells were maintained in ACL-4 media (Invitrogen, Carlsbad, Calif.) supplemented with 5% FBS, 100 units/mL penicillin, 100 units/mL streptomycin, and 2 mM glutamine. The EGFR 1941R mutation was introduced via site directed mutagenesis using the Quick Change Site-Directed Mutagenesis kit (Stratagene: La Jolla, Calif.) according to the manufacturer's instructions. All constructs were confirmed by DNA sequencing. The constructs were shuttled into the retroviral vector JP1540 using the BD Creator™ System (BD Biosciences). Ba/F3 cells were infected with retrovirus and according to standard protocols, as described previously (Zhou 2009). Stable clones were obtained by selection in puromycin (2 μg/ml).
Growth and inhibition of growth was assessed by MTS assay and was performed according to previously established methods (Zhou 2009). The MTS assay is a colorimetric method for determining the number of viable cells that is based on the bioreduction of MTS by cells to a formazan product that is soluble in cell culture medium and can be detected spectrophotometrically. Ba/F3 cells of different EGFR genotypes were exposed to treatment and the number of cells used per experiment determined empirically and has been previously established (Zhou 2009). All experimental points were set up in six wells and all experiments were repeated at least three times. […] The curves were fitted using anon-linear regression model with a sigmoidal dose response.

T1 sequence (P00533 696-1022 T790M/L858R): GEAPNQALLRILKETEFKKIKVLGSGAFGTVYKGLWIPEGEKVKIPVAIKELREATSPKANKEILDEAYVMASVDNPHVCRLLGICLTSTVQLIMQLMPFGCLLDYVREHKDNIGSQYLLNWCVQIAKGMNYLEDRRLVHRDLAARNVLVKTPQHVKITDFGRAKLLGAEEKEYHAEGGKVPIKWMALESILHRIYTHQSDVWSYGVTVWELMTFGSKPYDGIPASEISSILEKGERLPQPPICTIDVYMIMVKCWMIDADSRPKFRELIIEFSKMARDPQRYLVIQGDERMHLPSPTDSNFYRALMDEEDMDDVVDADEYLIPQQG

Compound: O=C1c2cc(-c3ccc(N4CCNCC4)cc3)ccc2Nc2ccccc2N1Cc1ccccc1 [Compound I-11]
- IC50 [1]: < 250 nM
- EC50 ([2]; absence of cetuximab, read-out: Ba/F3 cellular activity (EC50) T790M/L858R): ≥ 750 nM
- Activity (% cetuximab); inhibition of proliferation ([2]; compound at 1 μM in the presence of 1 μg/mL cetuximab, EGFR T790M/L858R Ba/F3): B (25 ≤ B < 50)
- Activity (% DMSO control); inhibition of proliferation ([2]; compound at 1 μM, EGFR T790M/L858R Ba/F3): D (75 ≤ D)
- EC50 ([2]; read-out: Ba/F3 cellular activity (EC50) T790M/L858R + Cetuximab (1 μg/mL), presence of 1 μg/mL cetuximab): 250 to 500 nM
- Activity (% cetuximab); inhibition of proliferation ([3]; compound at 1 μM in the presence of 1 μg/mL cetuximab, EGFR L858R/T790M/C797S): C (50 ≤ C < 75)
- Activity (% DMSO control); inhibition of proliferation ([3]; compound at 1 μM, EGFR L858R/T790M/C797S Ba/F3): D (75 ≤ D)

Reference: patent publication US20200375999A1, “PHARMACEUTICAL COMBINATIONS OF EGFR INHIBITORS AND METHODS OF USE THEREOF” (DANA-FARBER CANCER INSTITUTE, INC., priority 2018, published 2020)
